pIC50: −log10 of the molar value. Where two headings read alike, the source gives them in different places.
How the values were obtained:
[1] = test system: HL-60 promyelocytic leukemia cell line; assay: 3H-thymidine incorporation assay, HL-60; format: cell-based; conditions: HL-60, 48 h incubation, 3H-thymidine pulse 6 h, read-out: IC50, inhibition of cell proliferation, HL-60
Procedure: (§1) The ability of the compounds to inhibit cancer cell growth was evaluated in promyelocytic leukemia cell line, HL-60, using a ^3H-thymidine incorporation assay. Cells were plated in a 96-well plate at 10-20×10^3 cells/well in RPMI supplemented with 10% fetal bovine serum, 2 mM glutamine, 1% penicillin/streptomycin (complete medium). The caged Garcinia xanthones were added to the cells at increasing concentrations and 0.1% DMSO was added to control cells. Cells were incubated for 48 h and then pulsed with ^3H-thymidine for 6 h. Incorporation of ^3H-thymidine was determined in a scintillation counter (Beckman Coulter Inc., Fullerton, Calif.) after cells were washed and deposited onto glass microfiber filters using a cell harvester M-24 (Brandel, Gaithersburg, Md.). Table 1 provides IC50 values for the natural products gambogic acid and gambogin, forbesione and deoxymorellin.

[2] = test system: HL-60/ADR cells (multidrug resistant clone, mdr-1 transfected); assay: 3H-thymidine incorporation assay, HL-60/ADR; format: cell-based; conditions: 48 h incubation, 3H-thymidine pulse 6 h, read-out: IC50, inhibition of cell proliferation, HL-60/ADR
Procedure: as §1
The compounds were also evaluated in HL-60/ADR cells, a multidrug resistant clone obtained by transfection of HL-60 cells with mdr-1. (See, A. Batova, L. E. Shao, M. B. Diccianni, A. L. Yu, T. Tanaka, A. Rephaeli, A. Nudelman and J. Yu, Blood, 2002, 100, 3319-24). […] Without being bound to any particular theory, it is believed that the caged Garcinia xanthones are not subject to the mechanism of chemo-resistance resulting from the expression of mdr, characteristic of many relapsed cancers. (See, M. M. Gottesman and I. Pastan, Annu. Rev. Biochem., 1993, 62, 385-427; S. Simon, D. Roy and M. Schindler, PNAS, 1994, 91, 1128-1132 and A. K. Larsen, A. E. Escargeuil and A. Skladanowski, Pharmacol. Ther., 2000, 85, 217-229).

A549 (lung) = assay: Trypan-blue exclusion assay, A549; format: cell-based
HT29 (colon) = assay: Trypan-blue exclusion assay, HT29; format: cell-based
MCF-7 (breast) = assay: Trypan-blue exclusion assay, MCF-7; format: cell-based
M21 (melanoma) = assay: Trypan-blue exclusion assay, M21; format: cell-based
Procedure: (§2) Compounds such as desoxymorellin, gambogic acid, gambogin and 17 were further evaluated in a panel of solid and non-solid tumor cell lines. CEM cells were plated in a 24-well plate in complete media at 50×10^3 cells/well. Cells were treated with gambogin at concentrations of 0.25, 0.5, 1.0 μM or with 0.1% DMSO (control cells). Cells were incubated for 4 days and then the number of viable cells was determined after the addition of trypan-blue dye by counting the cells which exclude trypan-blue in a hemocytometer. Data for inhibition of cell proliferation is provided in.

PC3 (prostate) = assay: Trypan-blue exclusion assay, PC3; format: cell-based
[3] = test system: CEM T-cell acute lymphoblastic leukemia cell line; assay: Trypan-blue exclusion assay, CEM; format: cell-based; conditions: Homo sapiens, read-out: IC50 (μM), CEM leukemia
Procedure: as §2

[4] = Animal study, body weight/toxicity in SCID mice injected with primary human leukemia cells; format: in vivo; conditions: IV injections
Procedure: SCID mice were injected with primary human leukemia cells. Seven days following injection of leukemia cells, mice were given IV injections of gambogic acid, gambogic acid analog (17), or PBS (control). Each treatment group contained 3 mice which were monitored for body weight upon each injection.

[5] = WST assay, cell viability; format: cell-based; conditions: human, HUVE (human umbilical vein endothelial) cells, 24 h incubation, read-out: IC50, cytotoxicity (WST assay)
Procedure: Cell viability was determined using the WST assay in HUVE (human umbilical vein endothelial) cells that measures metabolic activity of cells alive. Compound 17 was dissolved in DMSO and further diluted with Endothelial Cell Growth Medium (PromoCell, Heidelberg, Germany) to obtain a final concentration as indicated. HUVE cells (PromoCell, Heidelberg, Germany) were seeded into each well of a 96-well cell culture plate at 7000 cells per well and incubated at 37° C. for 24 h with the indicated concentrations of each compound. The final volume was 100 μL per well. Control samples were incubated with the solvent alone. Each experiment was repeated in triplicate. Afterwards the WST-1 reagent was added to the cells at 10 μL per well and the cells further incubated at 37° C. for additional 3 h. Then the cell culture plate was agitated thoroughly for 1 minute on a shaker at 200 U/min. The absorbance of each sample was measured using a microplate reader at 440 nm. The reference wavelength was 690 nm.

HUVE cells = assay: Apoptosis assay (Cell Death Detection ELISA PLUS); format: cell-based, human
Procedure: The compounds were dissolved in DMSO and further diluted with Endothelial Cell Growth Medium (PromoCell, Heidelberg, Germany) to obtain final concentrations as indicated. HUVE cells were seeded into each well of a 96-well cell culture plate at 10000 cells per well and incubated at 37° C. for 10 h with the indicated concentrations of each compound. The final volume was 100 μL per well. Control samples were incubated with the solvent alone. Each sample was repeated three times. The proapoptotic effect was detected by using the Cell Death Detection ELISA^PLUS kit (Roche Diagnostics GmbH, Mannheim, Germany) according to the manufactor's instructions. The kit constitutes a photometric enzyme-immunoassay for the qualitative and quantitative in vitro determination of cytoplasmic histone-associated-DNA-fragments (mono- and oligo-nucleosomes) after induced cell death. Due to the working procedure the kind of cell death (apoptosis or necrosis) […]. The absorption values A (A405nm-A490nm) measured give a quantitative indication of the induced amount of apoptosis/necrosis. The higher the absorption A, the higher the induction of apoptosis/necrosis at the corresponding concentrations of the compounds.

[6] = test system: HEL (Human Embryonic Lung fibroplasts); conditions: cited from earlier work
[7] = test system: (HeLa) Henrietta Lacks cervical cancer cells; conditions: cited from earlier work

Structure (SMILES)	pIC50 [1]	pIC50 [2]	pIC50 ([1]; Homo sapiens)	pIC50 ([2]; Homo sapiens, HL60/ADR)	IC50 (A549 (lung); Homo sapiens) [µM]	IC50 (HT29 (colon); Homo sapiens, HT-29) [µM]	IC50 (MCF-7 (breast); Homo sapiens, MCF7) [µM]	IC50 (M21 (melanoma); Homo sapiens) [µM]	IC50 (PC3 (prostate); Homo sapiens, PC-3) [µM]	IC50 ([3]; 96 h, CEM, 4 days incubation) [µM]	toxicity (body weight) compared to PBS control [4]	also measured
CC(C)=CCc1c(O)cc(O)c2c1O[C@]13C(=C[C@@H]4C[C@H]1C(C)(C)O[C@@]3(CC=C(C)C)C4=O)C2=O [Forbesione]	5.66	5.70	–	–	–	–	–	–	–	–	–	–
CC(C)=CCC[C@]1(C)C=Cc2c(O)c3c(c(CC=C(C)C)c2O1)O[C@]12C(=C[C@@H]4C[C@H]1C(C)(C)O[C@@]2(C/C=C(/C)C(=O)O)C4=O)C3=O [gambogic acid]	–	–	6.52	6.30	1.8	0.7	0.4	1.2	0.4	0.15	some toxicity	–
CC(C)=CCCC1(C)C=Cc2c(O)c3c(c(CC=C(C)C)c2O1)O[C@]12C(=CC4C[C@H]1C(C)(C)OC2(CC=C(C)C)C4=O)C3=O (stereo partly drawn) [gambogin]	–	–	6.10	5.96	1.8	1	1.1	1	1.1	–	–	IC50 ([3]; CEM-4, 96 h): 0.35 µM
CC(C)=CCC12OC(C)(C)C3CC(C=C4C(=O)c5ccccc5OC431)C2=O (stereo not drawn) [Compound 17]	–	–	5.82	5.85	> 4	3.1	–	2.2	–	0.3	no significant toxicity	IC50 at 24 h [5]: 1380 nM; subset of cells with necrosis (HUVE cells; HUVE cells, concentrations >3 μM, 10 h): ~10%; cell necrosis (HUVE cells; HUVE cells, concentrations lower than 1.5 μM, 10 h): not detected; HUVE cells undergoing apoptosis (HUVE cells; after 10 h, dose-dependent): > 90%
CC(C)=CCc1c2c(c(O)c3c1O[C@@]14C(=C[C@H]5CC1C(C)(C)O[C@]4(CC=C(C)C)C5=O)C3=O)C=CC(C)(C)O2 [desoxymorellin]	6.00	5.96	–	–	–	–	–	–	–	–	–	IC50 (A549 (lung)): 2.1 µM; IC50 (HT29 (colon); HT29): 1.2 µM; IC50 (MCF-7 (breast); MCF-7): 0.9 µM; IC50 (M21 (melanoma)): 1.6 µM; IC50 (PC3 (prostate); PC3): 1.2 µM
CC(C)=CCc1c2c(c(O)c3c1O[C@]14C(=C[C@@H]5C[C@H]1C(C)(C)O[C@@]4(C/C=C(/C)C=O)C5=O)C3=O)C=CC(C)(C)O2 [morellin]	–	–	–	–	–	–	–	–	–	–	–	cytotoxicity against HEL [6]: good cytotoxicity; cytotoxicity against HeLa [7]: good cytotoxicity
